Values quoted from earlier work as cited in patent US20090285767A1, “USE OF OZONATED LIQUIDS AND PEROXIDES TO WHITEN TEETH” (priority 2008, published 2009).

Details: gaseous ozone, device of the Lynch '985 patent

In the case of `O=[O+][O-]` [gaseous ozone, ozone], the “whitening of extrinsic discoloration, effect on brown-colored melanoidins” value is listed as “ability of gaseous ozone to whiten extrinsic discoloration”.
